Literature values in patent US4405354A, “Elimination of odors from waste material” (priority 1980, dated 1983).
Like-named read-outs stand apart in the source and are kept apart here.

N [aqueous ammonia]
Kb (0 °C): 1.374 × 10^-5 | Kb (5 °C): 1.479 × 10^-5 | Kb (10 °C): 1.570 × 10^-5 | Kb (15 °C): 1.652 × 10^-5 | Kb (20 °C): 1.710 × 10^-5 | Kb (25 °C): 1.774 × 10^-5 | Kb (30 °C): 1.820 × 10^-5 | Kb (35 °C): 1.849 × 10^-5 | Kb (40 °C): 1.862 × 10^-5 | Kb (45 °C): 1.879 × 10^-5 | Kb (50 °C): 1.892 × 10^-5
